Source: US9068018B2, “Methods of using voltage-gated Hv1 proton channels to detect changes in intracellular pH” (Children's Medical Center Corporation, priority 2006, dated 2015)
Substitutions are numbered along the chain they refer to.

Tests used:
[1] = tested on: human airway epithelial cultures; conditions: background description; cited from earlier work
GFP-hHv1 G199C mutant = target: T1, GFP-hHv1 G199C mutant (Homo sapiens, UniProt Q96D96, G199C); assay: Patch-clamp currents of GFP-hHv1 G199C mutant in transfected HEK cells; format: cell-based; conditions: G199C mutant (engineered Cys at residue 199); FIG. 3
T1 construct: expressed in transfected cells; host or cells: HEK-293 cell clone HM1 (stably expresses the human muscarinic M1 receptor)
T1 sequence (Q96D96 1-273 G199C): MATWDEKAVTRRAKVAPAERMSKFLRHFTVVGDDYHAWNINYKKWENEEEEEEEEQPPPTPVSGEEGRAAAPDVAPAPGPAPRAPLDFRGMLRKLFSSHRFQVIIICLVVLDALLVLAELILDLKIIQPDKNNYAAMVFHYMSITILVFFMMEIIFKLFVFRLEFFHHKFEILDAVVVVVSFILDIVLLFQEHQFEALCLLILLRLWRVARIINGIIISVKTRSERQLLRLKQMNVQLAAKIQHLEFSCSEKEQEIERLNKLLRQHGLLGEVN

wt GFP-hHv1 = target: T2, wt GFP-hHv1 (Homo sapiens, UniProt Q96D96); assay: Patch-clamp currents of wt GFP-hHv1 in transfected HEK cells; format: cell-based; conditions: wild-type channel
T2 construct: expressed in transfected cells; host or cells: HEK-293 cell clone HM1 (stably expresses the human muscarinic M1 receptor)
T2 sequence (Q96D96 1-273): T1 sequence (Q96D96 1-273 G199C) with C199G

T lymphocytes = conditions: one day after stimulation; cited from earlier work

Compound: Nc1ncnc2c1ncn2[C@@H]1O[C@H](COP(=O)(O)OP(=O)(O)OP(=O)(O)O)[C@@H](O)[C@H]1O [ATP]
- effect on acid secretion across the epithelium [1]: stimulated

Compound: C[N+](C)(C)CCSS(C)(=O)=O [MTSET, 2-(trimethylammonium)methanethiosulfonate]
- effect on hHv1 currents (GFP-hHv1 G199C mutant): modulate hHv1 currents
- effect on wt GFP-hHv1 currents (wt GFP-hHv1): little effect

Compound: CCCCCCCCCCCCCC(=O)O[C@@H]1[C@@H](C)[C@@]2(O)[C@@H](C=C(CO)C[C@]3(O)C(=O)C(C)=C[C@@H]23)[C@@H]2C(C)(C)[C@]12OC(C)=O [PMA, phorbol 12-myristate 13-acetate]
- increase of H+ currents in T lymphocytes (T lymphocytes): 13 fold

Compound: Cc1nc2c(OCc3ccccc3)cccn2c1CC#N [Sch-28080]
- effect on acid secretion across the epithelium [1]: not

Compound: [Cl-].[Cl-].[Zn+2] [ZnCl2]
- effect on acid secretion across the epithelium [1]: inhibited

Compound: N=C(N)NC(=O)c1nc(Cl)c(N)nc1N [amiloride]
- effect on acid secretion across the epithelium [1]: not

Compound: CO/C1=C\C(C)=C\[C@@H](C)[C@@H](O)[C@@H](C)C/C(C)=C/C=C/[C@H](OC)[C@@H]([C@@H](C)[C@@H](O)[C@H](C)[C@@]2(O)C[C@@H](O)[C@H](C)[C@@H](C(C)C)O2)OC1=O [bafilomycin A1]
- effect on acid secretion across the epithelium [1]: not

Compound: NCCc1c[nH]cn1 [histamine]
- effect on acid secretion across the epithelium [1]: stimulated

Compound: C[C@@H]1O[C@@H](O[C@H]2C[C@@H](O)[C@]3(CO)[C@H]4[C@H](O)C[C@]5(C)[C@@H](C6=CC(=O)OC6)CC[C@]5(O)[C@@H]4CC[C@]3(O)C2)[C@H](O)[C@H](O)[C@H]1O [ouabain]
- effect on acid secretion across the epithelium [1]: not
